Reference: US5589510A, “Method for inhibiting retroviral infection by administering a naphthalenesulfonic acid compound” (priority 1995, dated 1996)
Several values for one entry are separate records, joined by “and”; a condition that tells them apart may be missing. Equal values may be shown once. Read-outs that look alike come from different tables or passages of the source.

What was measured:
HIV-1 RF [1] = assay: Antiviral assay, Experimental Protocol I (compound added after infection); type: cell-based; conditions: Human immunodeficiency virus 1, 240 h, p24 ELISA, read-out: % Inhibition (after day 10); for inhibition at 1.25 µg/mL: 1.25 μg/ml; for inhibition at 2.5 µg/mL: 2.5 μg/ml; for inhibition at 5 µg/mL: 5 μg/ml; for inhibition at 0.6 µg/mL: 0.6 μg/ml
Experimental: HIV-1 infectivity studies were conducted in CEM, H9, MT2 cells and peripheral blood mononuclear cells (PBMC). CEM, H9 and MT2 were grown in RPMI1640 medium, 10% heat-inactivated fetal bovine serum (FBS). PBMCs were stimulated with 4 μg/ml PHA for 48 hours in RPMI1640, 10% FBS before HIV-1 infection. After HIV-1 infection, PBMCs were maintained in RPMI 1640, 10% FBS and 10 10 units/ml IL-2. The major HIV-1 isolates used were MN, IIIB, SF2, AZT-sensitive A018 and AZT-resistant A018 provided by NIH AIDS research and reference reagent program. Two major antiviral assays were developed to determine the antiviral activities of the compounds of this invention (as inhibitors).
I. The cells were infected with HIV-1 RF or IIIB at an infectivity multiplicity (moi) of 0.001 in the absence of a compound of this invention for one hour. HIV-1 infected cells were washed once with PBS, resuspended in RPMI1640, 10% FBS medium and distributed in 24-well culture dishes (5×10^5 cells per well) in the presence of a compound of this invention as inhibitor. […]

[2] = system: TA98, TA1535, TA1537, TA1538, TA100 and W2P2uvr; assay: Ames Test (in the presence of S9); type: cell-based, Salmonella typhimurium; conditions: for Ames Test, specific mutagenic activity: the higher the value, the higher the mutagenicity
Text: Six Salmonella typhimuriumstrai strains, TA98, TA1535, TA1537, TA1538, TA100 and W2P2uvr were used in this experiment.

[3] = system: HIV-1 patient isolate NIH 900285; assay: Inhibition of HIV-1 patient isolate NIH 900285 in PBMCs; type: cell-based; conditions: Human immunodeficiency virus 1, PBMC, 288 h, 10% FCS, read-out: % Inhibition (after day 12); for inhibition at 1 µg/mL: 1.0 μg/ml; for inhibition at 2.5 µg/mL: 2.5 μg/ml; for inhibition at 5 µg/mL: 5 μg/ml
Experimental: (§1) The inhibitory effects of additional naphthalenesulfonic acid compounds were tested as follows: Experimental Details:
(§2) PBMCs were activated for 48 hours in conditioned medium containing PHA at a concentration of 4 μg/ml. Thereafter 10^6 cells were plated in each of the 24 well plates containing 10% FCS or 50% FCS. The test compound, previously dissolved in a glucose solution (1 mg/ml), was then added to each of the wells to achieve the appropriate concentration. The plate was then incubated overnight (about 15 hours) after which 50 μl of cell-free HIV-1 patient isolate was added to each well. The plates were incubated for further 6 to 8 hours after which all free floating solution of virus was washed off. Washing was performed four times.
(§3) After removal of the virus, all cultures were resuspended in conditioned medium containing 10% FCS.
(§4) For control experiments virus growth was monitored in either 10% FCS or 50% FCS throughout the observation period (15 days).

reverse transcriptase = conditions: literature (Balzarini et al.); cited from earlier work
[4] = target: T1, recombinant reverse transcriptase (RT) (Human immunodeficiency virus type 1 group M subtype B, UniProt P04585); assay: Reverse transcriptase inhibition assay; type: biochemical, HIV-1
T1 construct: purchased Worthington Biochemical Corporation
Experimental: Inhibition of recombinant reverse transcriptase (RT) was performed by using commercially available Boehringer Mannheim RT assay kit (Cat. No. 1468 120) based on incorporation of digoxigenin labeled dUTP into DNA. Recombinant enzyme from HIV-1 was purchased from Worthington Biochemical Corporation. The level of anti-RT activity in the sample was determined by measurement of absorbance using an ELISA reader at 405 nm.

standard Ames Test = conditions: literature (K-T. Chung et al); cited from earlier work
LD50, intravenous, mice = type: in vivo; conditions: mouse, in vivo, female mice, mortalities within 1 week
Experimental: The test material was administered intravenously to 5 female mice in five increasing doses. Mortalities were recorded within 1 week, and the LD50 was determined with the aid of statistical calculations.

HIV-1 RF strain = assay: SCID mouse model (SCID-hu mice infected with HIV-1); type: in vivo
Experimental: Immunodeficient CB-17 SCID (severe combined immunodeficient) mice were reconstituted with human peripheral blood cells (Scid-hu). Two weeks after engraftment, the presence of human IgG indicating the presence of functional T and B cells was confirmed. Four weeks after engraftment, SCID-hu mice were infected with 10^6 tissue culture infectious doses/ml (TCID) of RF strain by ip injection.
Twenty-four hours after infection, 8 infected mice were treated daily with Compound 6 aqueous 5% glucose solution by ip injection at a dose of 50 mg/kg for only five days. The same dose of D-(+)-glucose was injected into SCID hu mice as a control. One month after final ip dose, peritoneal cells from the mice were cocultured with human lymphocytes. After four weeks, cultures were scored for the production of virus by assaying HIV-1 p24 levels in the supernatant. […] On the other hand, 5 of the 8 control mice had cultivated virus.

HIV-1 patient isolate IH = assay: Inhibition of HIV-1 patient isolate IH in PBMCs; type: cell-based; conditions: Human immunodeficiency virus 1, PBMC, 288 h, read-out: % Inhibition (after day 12); for inhibition at 2.5 µg/mL: 2.5 μg/ml; for inhibition at 5 µg/mL: 5 μg/ml; for inhibition at 10 µg/mL: 10 μg/ml; for inhibition at 20 µg/mL: 20 μg/ml
Experimental: as §1
as §2, with “Thereafter 10^6 cells were plated in each of the 24 well plates containing 10% FCS or 50% FCS.” left out
as §3, §4

HIV-1 RF [5] = assay: Antiviral assay, Experimental Protocol II (virus incubated with compound before cells); type: cell-based; conditions: Human immunodeficiency virus 1, 240 h, 10% FCS, p24 ELISA, read-out: % Inhibition (after day 10); for inhibition at 1.25 µg/mL: 1.25 μg/ml; for inhibition at 2.5 µg/mL: 2.5 μg/ml; for inhibition at 5 µg/mL: 5 μg/ml

## CCOc1cc(N=Nc2c(S(=O)(=O)O)cc3cc(S(=O)(=O)O)cc(NC(=O)c4cccc(Cl)c4Cl)c3c2O)c(OCC)cc1N=Nc1c(S(=O)(=O)O)cc2cc(S(=O)(=O)O)cc(NC(=O)c3ccc(Cl)cc3Cl)c2c1O [Compound 28]
HIV-1 RF [1]; 10% FCS
  inhibition at 1.25 µg/mL: 100%
  inhibition at 2.5 µg/mL: 100%
  inhibition at 5 µg/mL: 100%
[2]
  Ames Test result: Negative
[3]
  inhibition at 1 µg/mL: 0%
  inhibition at 2.5 µg/mL: 67%
  inhibition at 5 µg/mL: 98%

## Cc1cc(NC(=O)Nc2ccc(N=Nc3cc(S(=O)(=O)[O-])c4cccc(S(=O)(=O)[O-])c4c3)c(C)c2)ccc1N=Nc1cc(S(=O)(=O)[O-])c2cccc(S(=O)(=O)[O-])c2c1.[Na+].[Na+].[Na+].[Na+] [Direct Yellow 50]
Reverse transcriptase
  inhibition of reverse transcriptase: inhibitors of reverse transcriptase

## COc1cc(-c2ccc(/N=N/c3ccc4c(S(=O)(=O)O)cc(S(=O)(=O)O)c(N)c4c3O)c(OC)c2)ccc1/N=N/c1ccc2c(S(=O)(=O)O)cc(S(=O)(=O)O)c(N)c2c1O [CSB, Chicago Sky Blue, reference compound]
[4]
  inhibitory effect against reverse transcriptase (in words): inhibitory effect against reverse transcriptase
HIV-1 RF [1]; 10% FCS
  inhibition at 0.6 µg/mL: 37%
  inhibition at 1.25 µg/mL: 70%
  inhibition at 2.5 µg/mL: 90%
[2]
  Ames Test result: Positive
  Ames Test, specific mutagenic activity: 10 colony no/μg
Standard Ames Test
  mutagenic effects in Ames Test: strong mutagenic effects
LD50, intravenous, mice
  LD50 at 168 h: 100 mg/kg

## Cc1ccc(C(=O)Nc2ccc(S(=O)(=O)O)c3cc(S(=O)(=O)O)cc(S(=O)(=O)O)c23)cc1NC(=O)c1cccc(NC(=O)Nc2cccc(C(=O)Nc3cc(C(=O)Nc4ccc(S(=O)(=O)O)c5cc(S(=O)(=O)O)cc(S(=O)(=O)O)c45)ccc3C)c2)c1 [Suramin, reference compound]
[4]
  inhibitory effect against reverse transcriptase (in words): inhibitory effect against reverse transcriptase
  inhibition at 0.5 µM: 68%
HIV-1 RF [1]; 10% FCS
  inhibition at 1.25 µg/mL: 0%
  inhibition at 2.5 µg/mL: 0%
  inhibition at 5 µg/mL: 0%
Reverse transcriptase
  inhibition of reverse transcriptase: inhibitors of reverse transcriptase
LD50, intravenous, mice
  LD50 at 168 h: 40 mg/kg

## COc1cc(N=Nc2c(S(=O)(=O)O)cc3cc(S(=O)(=O)O)cc(NC(=O)c4cccc(Cl)c4Cl)c3c2O)c(OC)cc1N=Nc1c(S(=O)(=O)O)cc2cc(S(=O)(=O)O)cc(NC(=O)c3ccc(Cl)cc3Cl)c2c1O [Compound 6]
[4]
  inhibition at 0.5 µM: 32%
[4]; at 5.0 μM
  inhibition at 5 µM: 80%
HIV-1 RF [1]; 10% FCS, 0.3 μg/ml
  inhibition at 0.3 µg/mL: 99%
HIV-1 RF [1]; 10% FCS
  inhibition at 0.6 µg/mL: 100%
  inhibition at 1.25 µg/mL: 100%
  inhibition at 2.5 µg/mL: 100%
  inhibition at 5 µg/mL: 100%
HIV-1 RF [1]; 50% Human Serum
  inhibition at 0.6 µg/mL: 63%
  inhibition at 1.25 µg/mL: 64%
  inhibition at 2.5 µg/mL: 99%
  inhibition at 5 µg/mL: 100%
HIV-1 RF strain; SCID-hu mice, 50 mg/kg ip daily for five days
  detectable HIV specific p24 in mice: none of the 8 mice receiving Compound 6 had any detectable HIV specific p24 above the background of the no virus control
HIV-1 RF strain; SCID-hu mice, 50 mg/kg ip daily for five days, one value per mouse, coculture supernatant, 50 mg/kg
  P24 Day 28: 46.36 pg/mL and 35.44 pg/mL and 32.61 pg/mL and 40.90 pg/mL and 34.41 pg/mL and 34.36 pg/mL and 49.46 pg/mL and 58.02 pg/mL
HIV-1 RF strain; treatment for 5 days
  prevention of infection of reconstituted human immune cells: sufficient to prevent infection of reconstituted human immune cells in an animal model
[2]
  Ames Test result: Negative
[3]
  inhibition at 1 µg/mL: 0%
  inhibition at 2.5 µg/mL: 95%
  inhibition at 5 µg/mL: 99%
LD50, intravenous, mice
  LD50 at 168 h: 130 mg/kg
HIV-1 patient isolate IH; 10% FCS
  inhibition at 2.5 µg/mL: 0%
  inhibition at 5 µg/mL: 91%
  inhibition at 10 µg/mL: 82%
  inhibition at 20 µg/mL: 100%
HIV-1 patient isolate IH; 50% Human Serum
  inhibition at 2.5 µg/mL: 13%
  inhibition at 5 µg/mL: 80%
  inhibition at 10 µg/mL: 90%
  inhibition at 20 µg/mL: 100%

## CCCCCCC(=O)Nc1cc(S(=O)(=O)O)cc2cc(S(=O)(=O)O)c(N=Nc3cc(OC)c(N=Nc4c(S(=O)(=O)O)cc5cc(S(=O)(=O)O)cc(NC(=O)Cc6ccccc6)c5c4O)cc3OC)c(O)c12 [Compound 17]
[2]
  Ames Test result: Negative
HIV-1 RF [5]
  inhibition at 1.25 µg/mL: 72%
  inhibition at 2.5 µg/mL: 98%
  inhibition at 5 µg/mL: 100%
LD50, intravenous, mice
  LD50 at 168 h: 130 mg/kg

## COc1cc(N=Nc2c(S(=O)(=O)O)cc3cc(S(=O)(=O)O)cc(NC(=O)c4cc(Cl)cc(Cl)c4)c3c2O)c(OC)cc1N=Nc1c(S(=O)(=O)O)cc2cc(S(=O)(=O)O)cc(NC(=O)Cc3ccccc3)c2c1O [Compound 14]
[2]
  Ames Test result: Positive
  Ames Test, specific mutagenic activity: 0.12 colony no/μg
HIV-1 RF [5]
  inhibition at 1.25 µg/mL: 50%
  inhibition at 2.5 µg/mL: 56%
  inhibition at 5 µg/mL: 98%
LD50, intravenous, mice
  LD50 at 168 h: 160 mg/kg
